Results on 4 compounds are retold here after PMC4830892, “A microarray-based approach to evaluate the functional significance of protein-binding motifs” (Analytical and Bioanalytical Chemistry, 2016).

Read-outs that look alike come from different tables or passages of the source. Non-standard residues stand in square brackets, D forms with d. Residues, ends and D or L forms follow the SMILES beside them. pY = N[C@@H](Cc1ccc(OP(=O)(O)O)cc1)C(=O)O

Usually Kd stands for the concentration at which binding is half-saturated.

The subject of test [1] is α-phosphotyrosine antibody (α-pTyr 100). The test can be described thus: Titration of α-pY antibody on peptide microarrays. To be noted: for affinity of the α-pY antibody (in words): compared with the other pY peptides; for Kd: peptide microarray, α-pY antibody 0.06 to 6.66 nM, 3 h at 4 °C, indirect immunofluorescence (Alexa633), bimolecular binding isotherm (Eq. 1), average ± standard deviation, six independent experiments. It counts as binding. The method, then: (§1) Peptides that correspond to known interaction motifs involved in the formation of protein complexes in T cell signalling were purchased from EMC microcollections (Tübingen, Germany). All peptides carried an extra cysteine residue and a free N-terminus for immobilisation on the microarray substrates and a C-terminal amidation (see Electronic Supplementary Material (ESM), Table S1).
(§2) For generation of microarrays, peptide stock solutions (3 mM) in DMF were diluted 30 times with phosphate buffer (100 mM, pH 8) supplemented with 0.006 % (v/v) Triton X-100. N-Hydroxysuccinimide-preactivated slides served as substrates for immobilisation (Nexterion Slide H, Schott Nexterion/Peq-Lab, Erlangen, Germany) using a Nano-Plotter NP2.0 (GeSIM, Großerkmannshof, Germany), which employs piezo-driven pipetting tips to dispense peptide solutions. Microarray slides comprised 16 subarrays of doublets of each peptide. For each peptide, a volume of 1.2 nl was dispensed at a centre-to-centre spacing of 500 μm. During printing, temperature was maintained at 15 °C and air humidity at 65 %.
(§3) Sixteen incubation chambers with identical subarrays consisting of peptides derived from binding motifs of signalling proteins (see ESM Table S1) were generated by attaching a clip-on frame to the microarray substrate (ProPlate Multiarray System, Grace Biolabs, Molecular Probes, Eugene, OR, USA). The typical incubation volume for the subarrays was 50 μl. Microarrays were either incubated with an α-pY antibody (α-pTyr 100, 9411, Cell Signalling, Frankfurt am Main, Germany) at the indicated concentrations or co-incubated with cell lysate at the indicated concentrations for 3 h at 4 °C. Additionally, in another set of experiments, recombinant GRB2-SH2 was incubated on microarrays alone or co-incubated with cell lysate employing an α-penta HIS antibody (34600, Qiagen, Hilden, Germany) for the detection of His-tagged GRB2-SH2.
(§4) After incubation, microarrays were washed three times with washing buffer (PBS, 0.05 % (w/v) BSA, 0.05 % (w/v) Tween-20). For the detection of signals, microarrays were incubated with a secondary α-mouse antibody conjugated with Alexa633 (A-21050, Invitrogen) at a concentration of 1 μg/ml for 15 min at RT followed by a last washing step with washing buffer. Microarrays were dried with nitrogen and scanned using a ProScanArray (PerkinElmer Life Sciences, Waltham, Massachusetts), and the data were analysed using ArrayPro Analyzer software (Media Cybernetics, Silver Spring, USA) as described before. Final data represented the mean signal intensities corrected for the median of a ring-shaped local background surrounding the respective peptide spot. Titrations with α-pY antibody and GRB2-SH2 were performed to calculate dissociation constants (see below).
The resulting titration curves were fitted with Origin (OriginLab Corporation, v.6.1057, Northampton, USA) using a binding isotherm for a bimolecular interaction (Eq. 1):1 Fabs=Fmaxprot/Kd+prot Fabs represents the intensity of a microarray spot after background correction and [prot] the concentration of the titrated binder. Kd and Fmax were obtained from the fits.
To render this approach quantitative, first the affinities of the α-pY antibody towards the phosphotyrosine motifs of the microarrays were determined. […] The titration curves were fitted with a binding isotherm for a bimolecular interaction (Eq. 1, Fig. 2a, Table 1). In general, a coefficient of determination (R^2) of 0.8 was used as a cutoff in order to score a peptide as a binder. […] Regarding the poly-proline motif (PP) containing peptides present on the microarray, only on the peptide GAB2-509 in five experiments, a titration curve with an R^2 > 0.8 could be generated.

The subject of test [2] is proteins in Jurkat cell lysate (total cellular proteome). The test can be described thus: Competition of α-pY antibody binding with Jurkat cell lysate on peptide microarrays. As to conditions: for Kd: from EC50 and Kd α-pY by Cheng-Prusoff equation (Eq. 4), ± standard deviation. The method, then: as §1, §2
(§5) Jurkat T cell leukaemia cells were maintained in RPMI 1640 medium (PAN-Biotech, Aisenbach, Germany) supplemented with 10 % foetal calf serum at 37 °C in 5 % CO2. For the preparation of lysates, cells were resuspended in lysis buffer (1 % Triton X-100, 50 mM n-octyl-D-glucopyranoside (Fluka, Taufkirchen, Germany), 20 mM Tris, 1 mM EDTA, 150 mM NaCl, 1 mM Na3VO4, pH 7.5, and complete protease inhibitor cocktail (Roche Applied Science, Mannheim, Germany)). Incubation on ice for 1 h was followed by centrifugation at 20,000×g at 4 °C for 15 min to remove cell debris. Transmembrane proteins were extracted from lipid rafts by using N-octyl-D-glucopyranoside. Protein concentrations were measured by Bradford Assay.
as §3, §4
For determination of EC50 values for competition with cell lysate, curves were fitted according to2 y=y0+Ae^−x/t with y0 as the signal intensity of the α-pY antibody or the recombinant GRB2-SH2 domain without cell lysate, A the amplitude, x the protein concentration in lysate, and t the decay constant. […]

Test [3] has the same test system. The test can be described thus: Competition of recombinant GRB2-SH2 binding with cell lysate on peptide microarrays. The method, then: as §5
The PCR product of the SH2 domain of GRB2 (GRB2-SH2) was cloned into the pET160/GW/D-TOPO vector (Invitrogen, Breda, The Netherlands), which contains a region encoding for a His-tag. The plasmid was used to perform a transformation into One Shot TOP10 competent cells (Invitrogen). […] The concentration of expressed protein was determined by photometric measurements at OD280. The concentration of GRB2-SH2 was determined in Western blots by quantitatively analysing obtained bands of purified GRB2-SH2 in an Odyssey Infrared Imaging System (Li-Cor Biosciences, Bad Homburg, Germany) in comparison with a bovine serum albumin (BSA) standard. […]

The test system of test [4] is SH2 domain of GRB2 (GRB2-SH2). As to conditions: cited from earlier work; for binding to GRB2 / GRB2-SH2 (in words): Kd values of GRB2-SH2 described in recently published manuscript, ref [14]. An excerpt:
In contrast, the data points for LATpY191 and SHP1pY564, and SigpY437, ZAPpY319 and CDζpY72/83 were above or below the linear correlation defined by the first four peptides. […] SigpY437, in contrast, is a poor binder for which already low concent ...

As to `CC(C)C[C@H](NC(=O)[C@H](CCC(=O)O)NC(=O)[C@H](CCC(N)=O)NC(=O)[C@H](CO)NC(=O)[C@@H](NC(=O)[C@H](CC(N)=O)NC(=O)[C@@H](NC(=O)[C@H](Cc1ccc(OP(=O)(O)O)cc1)NC(=O)[C@H](CCC(=O)O)NC(=O)[C@H](CCCNC(=N)N)NC(=O)[C@H](CO)NC(=O)CNC(=O)[C@H](CC(=O)O)NC(=O)[C@H](CC(C)C)NC(=O)[C@H](CO)NC(=O)[C@H](C)NC(=O)[C@H](CCC(=O)O)NC(=O)[C@@H](N)CS)C(C)C)C(C)C)C(N)=O` [LATpY191] (H-CEASLDGSRE[pY]VNVSQEL-NH2), in test [1], the “affinity of the α-pY antibody (in words)” value was “high affinity” and the affinity, expressed as Kd, was 0.00035 ± 0.00028 µM. Binding in test [2] was characterised by a dissociation constant (Kd) of 16 ± 15 µM. In test [2] (result in words, Jurkat lysate up to 180 μM total protein), the “loss of signal of the α-pY antibody on competition with cell lysate” value is on record as “total loss of signal”. Moreover, the “competition of GRB2-SH2 by cell lysate (in words)” value in test [3] is “rather small competition”. Moreover, the “affinity for the SH2 domain of GRB2 (in words)” value in test [4] (ref [25], [26]) was “strong affinity”.
For the compound `CC(C)C[C@H](NC(=O)[C@H](CC(N)=O)NC(=O)[C@H](CCC(=O)O)NC(=O)[C@H](Cc1ccc(OP(=O)(O)O)cc1)NC(=O)[C@@H](NC(=O)[C@H](CC(=O)O)NC(=O)[C@H](CCC(=O)O)NC(=O)[C@H](CCCCN)NC(=O)[C@H](Cc1c[nH]cn1)NC(=O)[C@H](CCCCN)NC(=O)[C@H](CO)NC(=O)[C@@H](N)CS)C(C)C)C(=O)N[C@@H](Cc1c[nH]cn1)C(=O)N[C@H](C(=O)N[C@@H](CCCCN)C(=O)N[C@@H](CC(N)=O)C(=O)N[C@@H](CCCCN)C(N)=O)[C@@H](C)O` [SHP1pY564] (H-CSKHKEDV[pY]ENLHTKNK-NH2), in test [1], the “affinity of the α-pY antibody (in words)” value is recorded as “relatively low affinity” and the affinity, expressed as Kd, was 0.00089 ± 0.00057 µM. The compound also showed a Kd in test [2] of 17 ± 10 µM. For the same compound, the “affinity for the SH2 domain of GRB2 (in words)” value in test [4] (same as stated for LATpY191 (strong affinity for SH2 domain of GRB2), ref [27]) was “The same holds true”.
With `CC[C@H](C)[C@H](NC(=O)[C@H](CCC(=O)O)NC(=O)[C@H](CCCNC(=N)N)NC(=O)[C@H](CCC(=O)O)NC(=O)[C@H](CCC(=O)O)NC(=O)CNC(=O)[C@@H](N)CS)C(=O)N[C@@H](CCC(N)=O)C(=O)N[C@@H](Cc1ccc(OP(=O)(O)O)cc1)C(=O)N[C@@H](C)C(=O)N1CCC[C@H]1C(=O)N[C@@H](CC(C)C)C(=O)N[C@@H](CO)C(=O)N[C@@H](Cc1ccccc1)C(=O)N[C@@H](Cc1c[nH]cn1)C(=O)N[C@@H](CCCCN)C(=O)NCC(N)=O` [SigpY437] (H-CGEEREIQ[pY]APLSFHKG-NH2), the results for the Kd in test [1] and in test [2] were 0.00066 ± 0.00046 µM and 22 ± 20 µM, respectively. For the same compound, the “competition of GRB2-SH2 by cell lysate (in words)” value in test [3] was “already low concentrations of lysate show full competition”. For the same compound, the “binding to GRB2 / GRB2-SH2 (in words)” value in test [4] is “poor binder”.
For the compound `CC[C@H](C)[C@H](NC(=O)[C@H](CCCNC(=N)N)NC(=O)[C@H](C)NC(=O)[C@@H]1CCCN1C(=O)[C@H](CCC(=O)O)NC(=O)[C@@H]1CCCN1C(=O)[C@@H](NC(=O)[C@H](Cc1ccc(OP(=O)(O)O)cc1)NC(=O)CNC(=O)[C@H](CC(=O)O)NC(=O)[C@H](CO)NC(=O)[C@H](CC(N)=O)NC(=O)[C@H](CC(C)C)NC(=O)[C@@H](NC(=O)[C@H](CC(=O)O)NC(=O)[C@@H](NC(=O)[C@@H](N)CS)[C@@H](C)CC)[C@@H](C)O)[C@@H](C)O)C(=O)N[C@H](C(N)=O)[C@@H](C)O` [ZAPpY296] (H-CIDTLNSDG[pY]TPEPARIT-NH2), in test [1], the “affinity of the α-pY antibody (in words)” value was “relatively low affinity” and the dissociation constant Kd was 0.00132 ± 0.00059 µM. This compound returned a Kd in test [2] of 27 ± 28 µM. Besides, in test [4], the “binding to GRB2 / GRB2-SH2 (in words)” value is “good binder”.
